Data as given in patent publication US5091524A, “Glycosidase inhibitor salbostatin, process for its preparation, and its use” (Hoechst Aktiengesellschaft, priority 1988, dated 1992).

Target: T1, trehalase (Sigma No. T 8778) (Sus scrofa, UniProt I3LIR5)
T1 construct: purchased Sigma T 8778
T1 sequence (I3LIR5 24-583): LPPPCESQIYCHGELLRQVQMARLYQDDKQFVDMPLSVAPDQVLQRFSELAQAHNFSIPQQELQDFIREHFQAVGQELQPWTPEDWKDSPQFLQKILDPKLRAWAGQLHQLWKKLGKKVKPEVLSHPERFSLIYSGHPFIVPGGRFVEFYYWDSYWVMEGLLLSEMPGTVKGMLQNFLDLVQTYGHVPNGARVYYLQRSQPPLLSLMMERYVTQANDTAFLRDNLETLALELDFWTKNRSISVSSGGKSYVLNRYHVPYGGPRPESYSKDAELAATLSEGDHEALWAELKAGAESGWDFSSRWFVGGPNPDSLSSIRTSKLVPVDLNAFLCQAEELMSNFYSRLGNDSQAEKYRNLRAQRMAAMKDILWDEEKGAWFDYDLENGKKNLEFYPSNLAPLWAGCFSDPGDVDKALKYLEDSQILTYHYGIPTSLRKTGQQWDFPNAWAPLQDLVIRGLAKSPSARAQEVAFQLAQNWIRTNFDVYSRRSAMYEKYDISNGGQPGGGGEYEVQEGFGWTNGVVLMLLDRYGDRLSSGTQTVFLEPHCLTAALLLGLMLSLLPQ
Test: Trehalase assay (colorimetric determination of D-glucose liberated from trehalose)
Type: biochemical
Protocol: The trehalase assay is based on the colorimetric determination of D-glucose, which is liberated from trehalose by the action of trehalase.
Before the assay was started, trehalase (Sigma No. T 8778) was diluted with 20 mM phosphate buffer pH 6.5 in a ratio of 1 1000. Trehalose was dissolved in a concentration of 0.lM in 0.lM 2-(n-morpholino)ethanesulfonic acid.
At the beginning of the assay, 100 μl each of H2 O, trehalose and trehalase were combined and the mixture was incubated at 37° C. for 30 minutes. The reaction was stopped by heating the batch to 100° C. The control batch was stopped immediately (0 minutes) by boiling. Where appropriate, salbostatin was added to the reaction batches in various concentrations in place of water.
The glucose which was liberated from the trehalose was determined colorimetrically. To this end, the glucose was reacted by glucose oxidase and the H2 O2 which formed was used for oxidizing o-dianisidine.The oxidized odianisidine was determined using a photometer. All the abovementioned reagents for glucose determination came from the glucose kit manufactured by Sigma (Sigma Chemie GmbH, Deisenhofen, Germany; No. 510-DA), and the assay was carried out in accordance with the enclosed protocol.

OCC1=C[C@H](N[C@H]2CO[C@H](CO)[C@@H](O)[C@@H]2O)[C@H](O)[C@@H](O)[C@@H]1O [salbostatin]
Ki (competitive with regard to trehalose, read-out: inhibitor constant Ki): 180 nM | IC50 (substrate trehalose, 37° C., 30 minutes, read-out: salbostatin concentration showing an enzyme inhibition of 50%): 10 to 100 nM | type of inhibition (enzyme kinetics) (with regard to trehalose): competitive trehalase inhibitor
